Experimental data from patent US12594267B2, “Capsid inhibitors for the treatment of HIV” (Gilead Sciences, Inc., priority 2018, dated 2026).
Read-outs that look alike come from different tables or passages of the source.

How the values were obtained:
Assay type in all cases: cell-based, HIV-1
[1] = system: PI-resistant viruses; assay: Cytopathic antiviral assay in MT-2 cells, PI-resistant viruses; conditions: Mutant/WT (HXB2D) EC50 ratio, mean ± s.d. of three experiments
Protocol: (§1) The antiviral activity of the compound of Formula (a) was tested against a panel of known HIV-1 mutants resistant to HIV PIs (ATV and DRV), NRTIs (TFV and FTC), NNRTIs (RPV and EFV) or INSTIs (RAL, EVG and DTG) using a cytopathic antiviral assay in MT-2 cells. The compound of Formula (Ia) was fully active against all tested mutants resistant to PIs (Table 11), NRTIs (Table 12), NNRTIs (Table 13) or INSTIs (Table 14).

[2] = system: NRTI-resistant viruses; conditions: Mutant/WT (LAI) EC50 ratio, MT-2 cells, mean ± s.d. of three experiments
Protocol: (§2) The antiviral activity of the compound of Formula (a) was tested against a panel of known HIV-1 mutants resistant to HIV PIs (ATV and DRV), NRTIs (TFV and FTC), NNRTIs (RPV and EFV) or INSTIs (RAL, EVG and DTG) using a cytopathic antiviral assay in MT-2 cells.

[3] = system: WT LAI; assay: microbe, parasite or virus in culture; conditions: Human immunodeficiency virus 1, MT2, read-out: WT LAI EC50
Protocol: as §2

[4] = system: NNRTI-resistant viruses; assay: Cytopathic antiviral assay in MT-2 cells, NNRTI-resistant viruses; conditions: Mutant/WT (HXB2D) EC50 ratio, mean ± s.d. of three experiments
Protocol: as §1

[5] = system: WT HXB2D; assay: Cytopathic antiviral assay in MT-2 cells, wild type HXB2D; conditions: Human immunodeficiency virus 1, MT2, read-out: WT HXB2D EC50, MT-2 cells, mean ± s.d. of three experiments in triplicate
Protocol: as §1

[6] = system: INSTI-resistant viruses; assay: Cytopathic antiviral assay in MT-2 cells, INSTI-resistant viruses; conditions: Mutant/WT (HXB2D) EC50 ratio, mean ± s.d. of three experiments
Protocol: as §1

[7] = INSTI-resistance panel (Table 14)

For `COC(=O)N[C@H](C(=O)N[C@@H](Cc1ccccc1)[C@@H](O)CN(Cc1ccc(-c2ccccn2)cc1)NC(=O)[C@@H](NC(=O)OC)C(C)(C)C)C(C)(C)C` [ATV, atazanavir], the “EC50 Fold-Change” value ([1]; G48V/V82A/L90M) was 32.5 ± 11.9, the “EC50 Fold-Change” value ([1]; G48V/V82S) was 15.4 ± 3.1 and the “EC50 Fold-Change” value ([1]; I50V) was 3.5 ± 0.4. For the same compound, the “EC50 Fold-Change” value ([1]; I84V/L90M) was 33.1 ± 7.8, the “EC50 Fold-Change” value ([2]; 6TAMs) was 0.5 ± 0.2 and the “EC50 Fold-Change” value ([2]; K65R) was 0.9 ± 0.3. For the same compound, the “EC50 Fold-Change” value ([2]; M184V) was 0.6 ± 0.2, the EC50 [3] was 4.78 ± 1.26 nM and the “EC50 Fold-Change” value ([4]; K103N) was 0.6 ± 0.3. The “EC50 Fold-Change” value ([4]; K103N/Y181C) was 0.6 ± 0.3, the “EC50 Fold-Change” value ([4]; L100I/K103N) was 0.6 ± 0.3 and the “EC50 Fold-Change” value ([4]; Y181C) was 1.8 ± 1.0. For the same compound, the “EC50 Fold-Change” value ([4]; Y188L) was 0.6 ± 0.3, the EC50 [5, 7] was 3.7 ± 1.07 nM and the EC50 ([5]; NNRTI-resistance panel (Table 13)) was 4.6 ± 1.48 nM. The EC50 ([5]; PI-resistance panel (Table 11)) was 4.18 ± 0.46 nM, the “EC50 Fold-Change” value ([6]; E92Q/N155H) was 1.0 ± 0.4 and the “EC50 Fold-Change” value ([6]; E138K/Q148K) was 0.8 ± 0.3. For the same compound, the “EC50 Fold-Change” value ([6]; G140S/Q148R) was 1.1 ± 0.5, the “EC50 Fold-Change” value ([6]; N155H/Q148R) was 0.9 ± 0.4 and the “EC50 Fold-Change” value ([6]; R263K/M50I) was 1.1 ± 0.6. For the same compound, the “EC50 Fold-Change” value ([6]; Y143R) was 0.8 ± 0.2.

For `COc1cc2c(cc1Cc1cccc(Cl)c1F)c(=O)c(C(=O)O)cn2[C@H](CO)C(C)C` [EVG, elvitegravir], the “EC50 Fold-Change” value ([1]; G48V/V82A/L90M) was 0.8 ± 0.4, the “EC50 Fold-Change” value ([1]; G48V/V82S) was 0.7 ± 0.3 and the “EC50 Fold-Change” value ([1]; I50V) was 1.7 ± 1.0. The “EC50 Fold-Change” value ([1]; I84V/L90M) was 1.0 ± 0.7, the “EC50 Fold-Change” value ([2]; 6TAMs) was 0.6 ± 0.4 and the “EC50 Fold-Change” value ([2]; K65R) was 0.8 ± 0.2. For the same compound, the “EC50 Fold-Change” value ([2]; M184V) was 1.1 ± 0.7, the EC50 [3] was 2.64 ± 0.9 nM and the EC50 [5, 7] was 1.87 ± 0.19 nM. The EC50 ([5]; PI-resistance panel (Table 11)) was 2.02 ± 0.88 nM, the “EC50 Fold-Change” value ([6]; E92Q/N155H) was greater than 53.5 and the “EC50 Fold-Change” value ([6]; E138K/Q148K) was greater than 53.5. The “EC50 Fold-Change” value ([6]; G140S/Q148R) was greater than 53.5, the “EC50 Fold-Change” value ([6]; N155H/Q148R) was 51.0 ± 2.5 and the “EC50 Fold-Change” value ([6]; R263K/M50I) was 5.1 ± 3.7. For the same compound, the “EC50 Fold-Change” value ([6]; Y143R) was 2.1 ± 0.2.

In the case of `Nc1nc(=O)n([C@@H]2CS[C@H](CO)O2)cc1F` [FTC, emtricitabine], the “EC50 Fold-Change” value ([2]; 6TAMs) is reported as 4.1 ± 2.5, the “EC50 Fold-Change” value ([2]; K65R) is reported as 12.8 ± 2.4 and the “EC50 Fold-Change” value ([2]; M184V) is reported as greater than 20.8. It also gave an EC50 [3] of 2.41 ± 1.16 nM.
